Experimental data: PubChem BioAssay AID248 (DTP/NCI, 2004)
Where “and” joins values, the source holds several entries; their conditions need not be identical. Equal entries are not always repeated. Inconclusive results and toxic doses are left out. Cut-off read from the data, not from the text of the source: active = T/C of 150% or more; inactive = T/C below 125%.

System: L1210 leukemia ip in BDF1 mice, survival T/C
Test: NCI In Vivo Anticancer Drug Screen. Data for tumor model L1210 Leukemia (intraperitoneal) in B6D2F1 (BDF1) mice
Conditions: endpoint: mean survival time, higher = longer survival
How it was run: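 Mice bearing the transplanted tumor received compound or vehicle. Survival of the treated group was divided by that of the vehicle-treated control group to give the ratio.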

[1] = dose: 100.0 mg/kg/injection, schedule: Q04DX002 (ip), vehicle: Klucel (hydroxypropylcellulose) (HPC)
[2] = dose: 200.0 mg/kg/injection, schedule: Q04DX002 (ip), vehicle: Klucel (hydroxypropylcellulose) (HPC)
[3] = dose: 400.0 mg/kg/injection, schedule: Q04DX002 (ip), vehicle: Klucel (hydroxypropylcellulose) (HPC)
[4] = dose: 100.0 mg/kg/injection, schedule: Q01DX001 (ip), vehicle: saline
[5] = dose: 200.0 mg/kg/injection, schedule: Q01DX001 (ip), vehicle: saline
[6] = dose: 400.0 mg/kg/injection, schedule: Q01DX001 (ip), vehicle: saline
[7] = dose: 100.0 mg/kg/injection, schedule: Q04DX003 (ip), vehicle: Klucel (hydroxypropylcellulose) (HPC)
[8] = dose: 200.0 mg/kg/injection, schedule: Q04DX003 (ip), vehicle: Klucel (hydroxypropylcellulose) (HPC)
[9] = dose: 400.0 mg/kg/injection, schedule: Q04DX003 (ip), vehicle: Klucel (hydroxypropylcellulose) (HPC)

Measured: T/C

CC(CCF)C(N)C(=O)O (stereo unspecified)
inactive: dose: 3.0 mg/kg/injection, schedule: Q01DX009 (ip), vehicle: saline 98 % of control | dose: 6.0 mg/kg/injection, schedule: Q01DX009 (ip), vehicle: saline 100 % of control | dose: 10.0 mg/kg/injection, schedule: Q01DX001 (ip), vehicle: saline 91 % of control | dose: 12.0 mg/kg/injection, schedule: Q01DX009 (ip), vehicle: saline 102 % of control | dose: 12.5 mg/kg/injection, schedule: Q01DX009 (ip), vehicle: saline 100 % of control | dose: 19.0 mg/kg/injection, schedule: Q01DX001 (ip), vehicle: saline 95 % of control | dose: 37.5 mg/kg/injection, schedule: Q01DX001 (ip), vehicle: saline 113 % of control | dose: 38.0 mg/kg/injection, schedule: Q01DX001 (ip), vehicle: saline 91 % of control

CCN(CC)CCN(C(=O)Cc1cccc2ccccc12)c1ccccc1N
inactive: dose: 19.0 mg/kg/injection, schedule: Q04DX003 (ip), vehicle: acid diluted with saline 94 % of control | dose: 38.0 mg/kg/injection, schedule: Q04DX003 (ip), vehicle: acid diluted with saline 102 % of control | dose: 75.0 mg/kg/injection, schedule: Q01DX001 (ip), vehicle: acid diluted with saline 105 % of control | dose: 75.0 mg/kg/injection, schedule: Q04DX003 (ip), vehicle: acid diluted with saline 100 % of control

Cc1c(Cl)cccc1NC(=S)Nc1ccccc1
inactive: [1] 100 % of control | [2] 95 % of control | [3] 95 % of control

NC(N)=NC(N)=Nc1ccccc1
inactive: [1] 101 % of control | [2] 105 % of control | [3] 97 % of control

Brc1nc(-c2ccccc2)c(-c2ccccc2)nc1Br
inactive: [4] 96 % of control | [5] 88 % of control | [6] 88 % of control

Cc1ccc(S(=O)(=O)N2CCN(S(=O)(=O)c3ccc(C)c([N+](=O)[O-])c3)CC2)cc1[N+](=O)[O-]
inactive: dose: 3.12 mg/kg/injection, schedule: Q01DX009 (ip), vehicle: clinical formulation 103 % of control | dose: 6.25 mg/kg/injection, schedule: Q01DX009 (ip), vehicle: clinical formulation 100 % of control | dose: 6.25 mg/kg/injection, schedule: Q04DX003 (ip), vehicle: clinical formulation 103 % of control | dose: 12.5 mg/kg/injection, schedule: Q01DX009 (ip), vehicle: clinical formulation 107 % of control | dose: 12.5 mg/kg/injection, schedule: Q04DX003 (ip), vehicle: clinical formulation 108 % of control | dose: 25.0 mg/kg/injection, schedule: Q01DX009 (ip), vehicle: clinical formulation 115 % of control | dose: 25.0 mg/kg/injection, schedule: Q04DX003 (ip), vehicle: clinical formulation 116 % of control | dose: 50.0 mg/kg/injection, schedule: Q01DX009 (ip), vehicle: clinical formulation 95 % of control | dose: 50.0 mg/kg/injection, schedule: Q04DX003 (ip), vehicle: clinical formulation 124 % of control

Cc1cc(OC(=O)Nc2cccc(Cl)c2Cl)c(C(C)C)cc1Cl
inactive: dose: 100.0 mg/kg/injection, schedule: Q01DX009 (ip), vehicle: Klucel (hydroxypropylcellulose) (HPC) 97 % of control | dose: 200.0 mg/kg/injection, schedule: Q01DX009 (ip), vehicle: Klucel (hydroxypropylcellulose) (HPC) 94 % of control | dose: 400.0 mg/kg/injection, schedule: Q01DX009 (ip), vehicle: Klucel (hydroxypropylcellulose) (HPC) 100 % of control

O=C(CC(C(=O)c1ccccc1)N1CC1)c1ccccc1 (stereo unspecified)
inactive: dose: 50.0 mg/kg/injection, schedule: Q01DX009 (ip), vehicle: saline sonified 91 % of control | dose: 50.0 mg/kg/injection, schedule: Q04DX003 (ip), vehicle: saline sonified 96 % of control | dose: 100.0 mg/kg/injection, schedule: Q01DX009 (ip), vehicle: saline sonified 94 % of control | dose: 100.0 mg/kg/injection, schedule: Q04DX003 (ip), vehicle: saline sonified 92 % of control | dose: 200.0 mg/kg/injection, schedule: Q04DX003 (ip), vehicle: saline sonified 97 % of control

Nc1ccc(N=Nc2ccc(S(N)(=O)=O)cc2)cn1
inactive: dose: 50.0 mg/kg/injection, schedule: Q01DX001 (ip), vehicle: other 97 % of control | dose: 100.0 mg/kg/injection, schedule: Q01DX001 (ip), vehicle: other 94 % of control | dose: 200.0 mg/kg/injection, schedule: Q01DX001 (ip), vehicle: other 103 % of control | dose: 400.0 mg/kg/injection, schedule: Q01DX001 (ip), vehicle: other 100 % of control

CC(C)(O)c1cccc2c(C(C)(C)O)cccc12
inactive: dose: 50.0 mg/kg/injection, schedule: Q01DX001 (ip), vehicle: carboxymethylcellulose (CMC) 102 % of control | dose: 100.0 mg/kg/injection, schedule: Q01DX001 (ip), vehicle: carboxymethylcellulose (CMC) 102 % of control | dose: 200.0 mg/kg/injection, schedule: Q01DX001 (ip), vehicle: carboxymethylcellulose (CMC) 94 % of control | dose: 400.0 mg/kg/injection, schedule: Q01DX001 (ip), vehicle: carboxymethylcellulose (CMC) 105 % of control

C#CC(O)(c1ccccc1)c1ccc(N(C)C)cc1 (stereo unspecified)
inactive: dose: 100.0 mg/kg/injection, schedule: Q04DX003 (ip), vehicle: saline with Tween-80 98 % of control | dose: 200.0 mg/kg/injection, schedule: Q04DX003 (ip), vehicle: saline with Tween-80 100 % of control | dose: 400.0 mg/kg/injection, schedule: Q04DX003 (ip), vehicle: saline with Tween-80 89 % of control

CCOC(=O)Nc1cc2ccncc2c2sc3ccccc3c12
inactive: dose: 100.0 mg/kg/injection, schedule: Q04DX003 (ip), vehicle: water 92 % of control | dose: 200.0 mg/kg/injection, schedule: Q04DX003 (ip), vehicle: water 87 % of control | dose: 400.0 mg/kg/injection, schedule: Q04DX003 (ip), vehicle: water 101 % of control

CCc1nc(N[N+](=O)[O-])nc(N)c1-c1ccccc1O
inactive: dose: 50.0 mg/kg/injection, schedule: Q04DX002 (ip), vehicle: Klucel (hydroxypropylcellulose) (HPC) 97 % of control | [1] 93 % of control and 111 % of control | [2] 97 % of control | [3] 90 % of control

O=c1c2ccccc2[nH]c2ccccc12
inactive: dose: 50.0 mg/kg/injection, schedule: Q04DX003 (ip), vehicle: Klucel (hydroxypropylcellulose) (HPC) 103 % of control | dose: 100.0 mg/kg/injection, schedule: Q01DX001 (ip), vehicle: Klucel (hydroxypropylcellulose) (HPC) 95 % of control | dose: 100.0 mg/kg/injection, schedule: Q01DX Z (ip), vehicle: carboxymethylcellulose (CMC) 96 % of control | [7] 101 % of control | dose: 200.0 mg/kg/injection, schedule: Q01DX001 (ip), vehicle: Klucel (hydroxypropylcellulose) (HPC) 98 % of control | dose: 200.0 mg/kg/injection, schedule: Q01DX Z (ip), vehicle: carboxymethylcellulose (CMC) 103 % of control | [8] 106 % of control and 97 % of control | dose: 400.0 mg/kg/injection, schedule: Q01DX001 (ip), vehicle: Klucel (hydroxypropylcellulose) (HPC) 95 % of control | dose: 400.0 mg/kg/injection, schedule: Q01DX Z (ip), vehicle: carboxymethylcellulose (CMC) 105 % of control | [9] 103 % of control and 96 % of control

O=C(Nc1ccc(F)c(Cl)c1)N(CCO)C1CCCCC1
inactive: [7] 101 % of control | [8] 100 % of control | [9] 92 % of control

O=NN(Cc1ccccc1)Cc1ccccc1
inactive: dose: 50.0 mg/kg/injection, schedule: Q01DX001 (ip), vehicle: saline 104 % of control | [4] 102 % of control | [5] 98 % of control | [6] 104 % of control

CCC(=O)OC1(c2ccccc2)CCN(CCCc2ccccc2Cl)CC1
inactive: dose: 3.13 mg/kg/injection, schedule: Q04DX002 (ip), vehicle: saline with Tween-80 103 % of control | dose: 6.25 mg/kg/injection, schedule: Q04DX002 (ip), vehicle: saline with Tween-80 106 % of control | dose: 12.5 mg/kg/injection, schedule: Q04DX002 (ip), vehicle: saline with Tween-80 103 % of control | dose: 25.0 mg/kg/injection, schedule: Q04DX002 (ip), vehicle: saline with Tween-80 106 % of control

Cc1ccc(-n2cnnn2)cc1
inactive: [4] 103 % of control | [5] 104 % of control | [6] 103 % of control

COc1ccc(/C=N/NC(=S)Nc2cccc3cccnc23)cc1OC
inactive: [4] 100 % of control | [5] 94 % of control | [6] 86 % of control

NC(=S)NN=C1CCCCC1
inactive: dose: 5.0 mg/kg/injection, schedule: Q01DX001 (ip), vehicle: carboxymethylcellulose (CMC) 96 % of control | dose: 10.0 mg/kg/injection, schedule: Q01DX001 (ip), vehicle: carboxymethylcellulose (CMC) 96 % of control | dose: 20.0 mg/kg/injection, schedule: Q01DX001 (ip), vehicle: carboxymethylcellulose (CMC) 107 % of control
